pEC50: −log10 of the molar value.
What was measured:
in vitro = type: cell-based; settings: human
Description: (§1) To detect the in vitro anti-human coronavirus (HCOV) 229E activity of the compound using the cytopathic effect (CPE) assay, and simultaneously evaluate the cytotoxicity of the compound.
(§2) The test compound was prepared as a 20 mM stock solution using DMSO. The initial testing concentration of the test compound was 50 μM, tested at 8 concentrations with 4-fold gradient dilutions, in duplicate wells. The control compound Remdesivir would be provided by WuXi AppTec. Remdesivir would be tested at 8 concentrations with 3-fold gradient dilutions, in duplicate wells.
(§3) MRC5 cells and coronavirus HCoV 229E were purchased from ATCC. MRC5 cells were cultured in EMEM (Sigma) culture medium supplemented with 10% fetal bovine serum (Excell), 1% double antibiotic (Hyclone), 1% L-glutamine (Gibco), and 1% non-essential amino acids (Gibco). […]
(§4) Cells were seeded in a 96-well microplate at a specific density (Table 1) and cultured overnight in a 5% CO2, 37° C. incubator. […] Cell viability was detected using the CellTiter Glo (Promega) cell viability assay kit. […]
Cell viability (%)=(test well reading value−average value of culture medium control)/(average value of cell control−average value of culture medium control)×100 […]

[1] = system: human coronavirus (HCoV) 229E; assay: In vitro anti-coronavirus activity test, cytopathic effect (CPE) assay; type: cell-based, human coronavirus (HCoV) 229E in MRC5 cells; settings: MRC5, 72 h, read-out: EC50 (median effective concentration)
Description: as §1, §2, §3, §4
Inhibition rate (%)=(test well reading value−average value of virus control)/(average value of cell control−average value of virus control)×100 […]

With `[2H][C@@]1(O)[C@H](O)[C@@H](COC(=O)C(C)C)O[C@@]1(C#N)c1ccc2c(N)ncnn12` [Compound 1] as the molecule, how does the CC50 at 3 days (in vitro) read?
The CC50 at 3 days was > 50000 nM.

And the pEC50 [1]?
Its pEC50 is 6.66.
